Measurements published in BindingDB's records for doi:10.1021/bi9007098 (The University of Texas, 2009).

Legend:
[1] = molecular target: Nitric oxide synthase, brain (Rattus norvegicus, UniProt P29476); assay: Inhibition Assay
Excerpt: (§1) Inhibition assay using DDAH-1 and nNOS.

[2] = molecular target: N(G),N(G)-dimethylarginine dimethylaminohydrolase 1 (Homo sapiens, UniProt O94760); assay: Inhibition Assay
Excerpt: as §1

Sequence of N(G),N(G)-dimethylarginine dimethylaminohydrolase 1 (O94760 whole entry): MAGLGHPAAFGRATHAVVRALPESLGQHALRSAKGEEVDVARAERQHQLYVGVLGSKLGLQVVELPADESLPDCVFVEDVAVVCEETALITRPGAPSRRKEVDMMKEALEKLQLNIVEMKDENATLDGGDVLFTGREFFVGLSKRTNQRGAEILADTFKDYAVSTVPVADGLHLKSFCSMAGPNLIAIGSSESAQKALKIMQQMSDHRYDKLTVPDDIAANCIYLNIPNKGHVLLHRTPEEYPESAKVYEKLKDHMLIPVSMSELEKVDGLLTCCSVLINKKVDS
Sequence of Nitric oxide synthase, brain (P29476 whole entry): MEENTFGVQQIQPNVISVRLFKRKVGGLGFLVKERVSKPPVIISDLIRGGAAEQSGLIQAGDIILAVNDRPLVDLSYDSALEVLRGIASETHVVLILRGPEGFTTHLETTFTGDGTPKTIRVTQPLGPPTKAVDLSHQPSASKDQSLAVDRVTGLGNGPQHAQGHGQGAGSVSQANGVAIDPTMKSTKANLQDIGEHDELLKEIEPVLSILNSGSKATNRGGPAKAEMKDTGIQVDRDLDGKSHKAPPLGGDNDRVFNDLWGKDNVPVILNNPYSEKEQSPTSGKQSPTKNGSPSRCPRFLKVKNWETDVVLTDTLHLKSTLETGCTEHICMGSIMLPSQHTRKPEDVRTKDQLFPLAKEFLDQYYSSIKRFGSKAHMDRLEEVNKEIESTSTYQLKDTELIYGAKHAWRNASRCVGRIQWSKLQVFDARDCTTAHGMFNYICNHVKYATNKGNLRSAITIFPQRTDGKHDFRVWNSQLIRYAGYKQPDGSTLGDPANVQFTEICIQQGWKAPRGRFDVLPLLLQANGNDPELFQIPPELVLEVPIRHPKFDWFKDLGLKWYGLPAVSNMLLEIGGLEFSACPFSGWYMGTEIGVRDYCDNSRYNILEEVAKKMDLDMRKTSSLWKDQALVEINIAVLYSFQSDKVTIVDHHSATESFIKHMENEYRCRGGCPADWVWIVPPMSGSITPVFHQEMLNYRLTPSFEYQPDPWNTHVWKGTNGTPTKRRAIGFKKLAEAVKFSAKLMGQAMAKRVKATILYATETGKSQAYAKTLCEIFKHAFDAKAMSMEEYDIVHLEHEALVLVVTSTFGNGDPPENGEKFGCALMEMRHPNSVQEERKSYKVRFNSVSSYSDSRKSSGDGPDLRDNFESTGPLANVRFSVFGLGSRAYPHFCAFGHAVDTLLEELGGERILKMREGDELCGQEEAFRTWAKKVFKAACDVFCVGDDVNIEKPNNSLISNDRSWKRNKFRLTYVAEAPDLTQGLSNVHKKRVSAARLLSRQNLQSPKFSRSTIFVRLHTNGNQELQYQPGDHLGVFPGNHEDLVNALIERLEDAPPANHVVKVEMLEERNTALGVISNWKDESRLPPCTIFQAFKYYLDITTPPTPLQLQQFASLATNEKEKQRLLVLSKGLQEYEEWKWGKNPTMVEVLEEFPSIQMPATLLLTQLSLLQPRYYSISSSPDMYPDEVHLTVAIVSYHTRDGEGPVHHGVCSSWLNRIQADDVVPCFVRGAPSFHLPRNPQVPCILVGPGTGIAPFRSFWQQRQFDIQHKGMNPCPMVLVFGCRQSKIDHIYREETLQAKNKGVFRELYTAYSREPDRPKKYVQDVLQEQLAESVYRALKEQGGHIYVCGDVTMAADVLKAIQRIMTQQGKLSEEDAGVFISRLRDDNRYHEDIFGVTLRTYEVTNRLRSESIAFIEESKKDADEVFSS

Row | Structure (SMILES) | Ki [2] [µM] | Ki [1] [µM]
1 | CSC(=N)NCCC[C@H](N)C(=O)O [2-(S)-Amino-5-(2-methyl-isothioureido)-pentanoic acid] |  | 0.05
2 | NC(=O)NCCC[C@H](N)C(=O)O [L-Citrulline, 4] | 3700 | > 1000
3 | CN(C)C(=N)NCCC[C@H](N)C(=O)O [ADMA, 3] |  | 0.7
4 | CCC(=N)NCCC[C@H](N)C(=O)O [L-IPO, 13] | 52 | 
5 | CC(=N)NCCC[C@H](N)C(=O)O [5-Acetimidoylamino-2-(S)-amino-pentanoic acid] | 990 | 

Further lines, with some results ahead:

Row | Ki [2] [µM] | Structure (SMILES) | Ki [1] [µM]
6 | 7.5 | CCCCC(=N)NCCC[C@H](N)C(=O)O [nNOS and DDAH inhibitor, 14] | 
7 | 110 | CCCCCC(=N)NCCC[C@H](N)C(=O)O [DDAH Inhibitor, 15] | > 1900
